Measurements taken from US20220236255A1, “Self-Contained Responsive Biological Systems and Methods” (Arizona Board of Regents on Behalf of the University of …, priority 2019, published 2022).
Like-named read-outs stand apart in the source and are kept apart here.

Experiments:
[1] = tested on: organoids of GFP-tagged glioblastoma U87 cells and RFP-tagged neural progenitor cells (NPCs); assay: Organoid fluorescence (cell viability) after everolimus pre-treatment and irradiation; format: cell-based, human; conditions: 10 nM everolimus for 24 hours before 2 Gy-irradiation; over one week
Method: (§1) Thus, the effect of a rapamycin analog, everolimus, on human cells was investigated using an in vitro organoids model. GFP-tagged glioblastoma U87 cells were cultured in presence of RFP-tagged neural progenitor cells (NPCs), differentiated from dermal fibroblasts reprogrammed to induced pluripotent stem cells, to form organoids. The organoids were exposed to 10 nM everolimus for 24 hours before 2 Gy-irradiation. […] This has been confirmed by qRT-PCR where Glast mRNA level (glioblastoma biomarker) decreases whereas SOX2 and Nestin mRNA levels (NPCs biomarkers) increase in irradiated organoids pre-treatment with everolimus (FIGS. 27A-27C).

[2] = tested on: Glast, SOX2 and Nestin mRNA in U87/NPC organoids; assay: qRT-PCR of biomarker mRNA in everolimus-treated irradiated organoids; format: cell-based, human; conditions: irradiated organoids pre-treated with everolimus; qRT-PCR at day 10 after irradiation
Method: as §1

[3] = tested on: RFP-transfected dermal fibroblasts spheroids; assay: Growth of irradiated dermal fibroblast spheroids pre-treated with everolimus; format: cell-based; conditions: everolimus 24 h before 4 Gy-irradiation; growth monitored for 8 days
Method: FIG. 33 RFP-transfected dermal fibroblasts spheroids have been exposed to different concentrations of everolimus 24 h before 4 Gy-irradiation and their growth monitored for 8 days.

SK-MEL-28 cells = assay: Modified MTT drug response assay, withaferin A, 72 hours; format: cell-based, human; conditions: WFA 72 hours, read-out: IC50 (concentration resulting in 50% of cell death)
Method: A modified MTT experiment was developed from CellTiter 96 NonRadioactive Cell Proliferation Assay kit (Promega). Treated leaves were cut into 1×1 cm sized pieces and fit to the bottom of an untreated 48-well plate. 0.75×0.75 cm inserts were placed in the well on the top of the leaf, cells were plated at 10,000 cells/insert and incubated at 37° C. with 5% CO2 atmosphere. After 24 hours, the inserts were removed and leaves with attached cells were cut and re-plated into non-treated 96-well plates. In parallel, cells were also directly seeded into a treated 96-well plate at a concentration of 5000 cells/well. The medium was refreshed every 72 hours. Tetrazolium component was added at day 1, 3, 5 and 7 and absorbance of formazan product was measured at 570 nm by using Epoch microplate spectrophotometer (Biotek Instruments). For the drug response assay, withaferin A (WFA) was added at concentrations ranging from 0.156 to 40 μM and incubated for 72 hours prior to the addition of the […]. […]
Microphthalmia-associated Transcription Factor (MITF) is a lineage-determining transcription factor critical for regulation of the melanocytic lineage during development and implicated as both a melanoma tumor suppressor and oncogene. […] Gene expression was then analyzed by qRT-PCR for MITF and three genes of the MITF-high expression signature (SOX10, MLANA and TYR). […]

SMILES | GFP fluorescence intensity (U87 cells) compared to vehicle-treated organoids after irradiation [1] | RFP fluorescence signal (NPCs) compared to vehicle-treated organoids after irradiation [1] | Glast mRNA level (glioblastoma biomarker) [2] | Nestin mRNA level (NPCs biomarker) [2] | SOX2 mRNA level (NPCs biomarker) [2] | growth of irradiated spheroids compared to non-pretreated spheroids [3] | IC50 (SK-MEL-28 cells; SK-MEL-28 cells seeded on decellularized spinach leaf scaffold) [µM] | IC50 (SK-MEL-28 cells; SK-MEL-28 cells seeded on stiff substrate (TCPS)) [µM]
CO[C@H]1C[C@@H]2CC[C@@H](C)[C@@](O)(O2)C(=O)C(=O)N2CCCC[C@H]2C(=O)O[C@H]([C@H](C)C[C@@H]2CC[C@@H](OCCO)[C@H](OC)C2)CC(=O)[C@H](C)/C=C(\C)[C@@H](O)[C@@H](OC)C(=O)[C@H](C)C[C@H](C)/C=C/C=C/C=C/1C [everolimus] | decreases | increases | decreases | increase | increase | increased | – | –
CC1=C(CO)C(=O)O[C@@H]([C@@H](C)[C@H]2CC[C@H]3[C@@H]4C[C@H]5O[C@]56[C@@H](O)C=CC(=O)[C@]6(C)[C@H]4CC[C@]23C)C1 [WFA, withaferin A] | – | – | – | – | – | – | 5.2 | 1.1
